From patent publication US12522615B2, “Macrocyclic compounds and derivatives as EGFR inhibitors” (Boehringer Ingelheim International GmbH, priority 2019, dated 2026)
pIC50: −log10 of the molar value. Where two headings read alike, the source gives them in different places. One block for each compound: values may come before it.

Key:
[1] = tested on: Ba/F3 cells driven by EGFR L858R C797S; assay: Ba/F3 proliferation assay (CellTiter-Glo viability); type: cell-based, murine; conditions: Mus musculus, BaF3, 72 h
Protocol: (§1) Plasmids containing EGFR mutants were obtained from GeneScript. To generate EGFR-dependent Ba/F3 models, Ba/F3 cells were transduced with retroviruses containing vectors that harbor EGFR isoforms. Platinum-E cells (Cell Biolabs) were used for retrovirus packaging. Retrovirus was added to Ba/F3 cells. To ensure infection, 4 μg/mL polybrene was added and cells were spinfected. Infection efficiency was confirmed by measuring GFP-positive cells using a cell analyzer. Cells with an infection efficiency of 10% to 20% were further cultivated and puromycin selection with 1 μg/mL was initiated. As a control, parental Ba/F3 cells were used to show selection status. Selection was considered successful when parental Ba/F3 cells cultures died. To evaluate the transforming potential of EGFR mutations, the growth medium was no longer supplemented with IL-3. Ba/F3 cells harboring the empty vector were used as a control. A switch from IL-3 to EGF was performed for Ba/F3 cells with the wildtype EGFR known for its dependency on EGF ligand. Approximately ten days before conducting the experiments, puromycin was left out. For proliferation assays (data in table 13), Ba/F3 cells were seeded into 96-well plates at 5×10^3 cells/100 μL in growth media. Compounds were added by using a HP D3000 Digital Dispenser. All treatments were performed in technical triplicates. Treated cells were incubated for 72 h at 37° C. with 5% CO2. CellTiter-Glo® Luminescent Cell Viability Assay (Promega) was performed and chemoluminescence was measured by using the multilabel Plate Reader VICTOR X4. The raw data were imported into and analyzed with the Boehringer Ingelheim proprietary software MegaLab (curve fitting based on the program PRISM, GraphPad Inc.).

[2] = tested on: Ba/F3 cells driven by EGFR del19; assay: as above; type: cell-based, murine; conditions: Mus musculus, read-out: IC50 EGFR del19
Protocol: as §1

[3] = tested on: Ba/F3 cells EGFR-indep. + IL-3; assay: as above; type: cell-based, murine; conditions: Mus musculus, BaF3, 72 h
Protocol: as §1

[4] = tested on: Ba/F3 cells driven by EGFR wt; assay: as above; type: cell-based, murine; conditions: Mus musculus, BaF3, 72 h
Protocol: as §1

[5] = tested on: Ba/F3 cells driven by EGFR L858R; assay: as above; type: cell-based, murine; conditions: Mus musculus, BaF3, 72 h
Protocol: as §1

[6] = tested on: Ba/F3 cells driven by EGFR L858R T790M; assay: as above; type: cell-based, murine; conditions: Mus musculus, BaF3, 72 h
Protocol: as §1

[7] = tested on: Ba/F3 cells driven by EGFR del19 C797S; assay: as above; type: cell-based, murine; conditions: Mus musculus, BaF3, 72 h
Protocol: as §1

[8] = tested on: Ba/F3 cells driven by EGFR del19 T790M C797S; assay: as above; type: cell-based, murine; conditions: Mus musculus, BaF3, 72 h
Protocol: as §1

[9] = tested on: Ba/F3 cells driven by EGFR del19 T790M; assay: as above; type: cell-based, murine; conditions: Mus musculus, BaF3, 72 h
Protocol: as §1

[10] = tested on: Ba/F3 cells driven by EGFR L858R T790M C797S; assay: as above; type: cell-based, murine; conditions: Mus musculus, BaF3, 72 h
Protocol: as §1

[11] = biological target: EGFR del19 T790M C797S (Homo sapiens, UniProt P00533, C797S/T790M, form not given); assay: pEGFR assay: phosphorylation of EGFR at Tyr1068 in Ba/F3 cells (AlphaScreen Surefire); type: cell-based; conditions: 4 h
Chain of EGFR del19 T790M C797S (P00533 25-1210 T790M/C797S limits assumed, form open): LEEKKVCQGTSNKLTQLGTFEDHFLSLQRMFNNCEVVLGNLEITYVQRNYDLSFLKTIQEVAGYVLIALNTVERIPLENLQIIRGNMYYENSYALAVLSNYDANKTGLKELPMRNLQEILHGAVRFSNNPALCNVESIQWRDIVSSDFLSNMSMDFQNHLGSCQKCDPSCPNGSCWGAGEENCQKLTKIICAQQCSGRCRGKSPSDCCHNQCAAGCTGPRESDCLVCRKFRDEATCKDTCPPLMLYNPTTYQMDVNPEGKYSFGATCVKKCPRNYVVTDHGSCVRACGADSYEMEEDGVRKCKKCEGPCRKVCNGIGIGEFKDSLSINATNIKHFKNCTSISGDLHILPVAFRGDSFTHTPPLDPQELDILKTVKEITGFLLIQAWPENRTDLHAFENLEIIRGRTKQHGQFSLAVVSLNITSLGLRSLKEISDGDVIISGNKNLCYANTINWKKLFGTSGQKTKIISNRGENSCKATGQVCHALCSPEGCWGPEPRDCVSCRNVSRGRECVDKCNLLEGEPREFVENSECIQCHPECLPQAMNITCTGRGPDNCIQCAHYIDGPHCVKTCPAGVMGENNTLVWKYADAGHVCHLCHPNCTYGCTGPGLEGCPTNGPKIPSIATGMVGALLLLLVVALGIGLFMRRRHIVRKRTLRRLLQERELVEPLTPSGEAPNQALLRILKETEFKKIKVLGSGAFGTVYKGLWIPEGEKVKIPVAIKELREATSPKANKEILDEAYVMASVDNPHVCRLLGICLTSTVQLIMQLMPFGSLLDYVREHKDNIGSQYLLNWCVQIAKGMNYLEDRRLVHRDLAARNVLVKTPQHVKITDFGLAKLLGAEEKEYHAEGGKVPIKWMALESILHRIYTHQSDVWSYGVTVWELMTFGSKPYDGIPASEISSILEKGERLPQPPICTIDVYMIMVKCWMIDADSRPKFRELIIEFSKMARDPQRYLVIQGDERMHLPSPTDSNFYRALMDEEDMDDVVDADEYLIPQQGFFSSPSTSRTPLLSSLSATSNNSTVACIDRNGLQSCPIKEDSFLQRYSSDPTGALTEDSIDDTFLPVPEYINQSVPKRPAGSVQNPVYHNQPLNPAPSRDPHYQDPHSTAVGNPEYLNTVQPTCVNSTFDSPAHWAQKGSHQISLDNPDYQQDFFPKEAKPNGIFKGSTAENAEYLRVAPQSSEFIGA
Protocol: Transduced cells were selected using puromycin. Following selection, IL-3 was withdrawn and IL-3 independent cells cultured. p-EGFR Tyr1068 was determined using the AlphaScreen Surefire pEGF Receptor (Tyr1068) Assay (PerkinElmer, TGRERS). […] Subsequently, 60.000 cells/well in 60 μL were added. Cells were incubated with compound for 4 h at 37° C. […] The mixture was incubated at room temperature with shaking (700 rpm) for 20 min. After centrifugation, 4 μL of the lysate were transferred to Proxiplates. […] Plates were shaken for 1 min (1400 rpm) and incubated for 2 h at room temperature in the dark.

[12] = biological target: EGFR (mutated) 695-1022, T790M, C797S, L858R (Homo sapiens (Human), UniProt P00533, C797S/L858R/T790M); assay: Biochemical EGFR inhibition assay (poly-GT substrate phosphorylation, TR-FRET LANCE Ultra)
Chain of EGFR (mutated) 695-1022, T790M, C797S, L858R (P00533 695-1022 T790M/C797S/L858R): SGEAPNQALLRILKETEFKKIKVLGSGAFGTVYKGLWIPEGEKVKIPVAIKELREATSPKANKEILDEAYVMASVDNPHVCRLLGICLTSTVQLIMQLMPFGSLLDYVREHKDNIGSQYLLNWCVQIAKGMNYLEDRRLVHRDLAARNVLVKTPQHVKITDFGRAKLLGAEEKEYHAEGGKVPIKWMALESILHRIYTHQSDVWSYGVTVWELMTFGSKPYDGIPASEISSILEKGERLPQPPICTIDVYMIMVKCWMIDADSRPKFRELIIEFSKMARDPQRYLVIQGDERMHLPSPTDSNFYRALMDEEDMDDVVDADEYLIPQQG
Protocol: (§2) Initially, the inhibitory effect of compounds according to the invention is measured in biochemical assays which measure the phosphorylation activity of EGFR enzyme forms on poly-GT substrate in the presence of different concentrations of ATP (5 μM and 100 μM final assay concentration).
(§3) The following enzyme forms of EGFR are representative examples that can be used in these assays at the given concentrations:
(§4) For the chosen highest assay concentration of 100 μM, 150 nL of compound solution is transferred from a 10 mM DMSO compound stock solution. A series of eleven fivefold dilutions per compound is transferred to the assay plate, compound dilutions are tested in duplicates. DMSO is added as backfill to a total volume of 150 nL. The assay runs on a fully automated robotic system.
(§5) 5 μL of EGFR enzyme form in assay buffer (50 mM HEPES pH 7.3, 10 mM MgCl2, 1 mM EGTA, 0.01% Tween 20, 2 mM DTT) are dispensed into columns 1-23, than 5 μL of ATP and ULight-poly-GT substrate (PerkinElmer; TRF0100-M) mix in assay buffer is added to all wells (final assay concentration of the ULight-poly-GT substrate 200 nM). Each of the different EGFR enzyme form assays is available at low ATP (final assay concentration 5 μM) and high ATP levels (final assay concentration 100 μM). After 90 minutes incubation at room temperature 5 μL EDTA (final assay concentration 50 mM) and LANCE Eu-anti-P-Tyr (PT66) antibody (PerkinElmer, AD0069) (final assay concentration 6 nM) mix are added to stop the reaction and start the binding of the antibody. […] Each plate contains 16 wells of a negative control (diluted DMSO instead of test compound; w EGFR enzyme form; column 23) and 16 wells of a positive control (diluted DMSO instead of test compound; w/o EGFR enzyme form; column 24). Negative and positive control values are used for normalization and IC50 values are calculated and analysed using a 4 parametric logistic model.
(§6) These biochemical EGFR enzyme form compound dose-response assays quantify the kinase activity via phosphorylation of a tagged poly-GT substrate. The results of the assay are provided as IC50 values.

[13] = biological target: EGFR wt (Homo sapiens (Human), UniProt P00533); assay: as above
Chain of EGFR wt (P00533 25-1210): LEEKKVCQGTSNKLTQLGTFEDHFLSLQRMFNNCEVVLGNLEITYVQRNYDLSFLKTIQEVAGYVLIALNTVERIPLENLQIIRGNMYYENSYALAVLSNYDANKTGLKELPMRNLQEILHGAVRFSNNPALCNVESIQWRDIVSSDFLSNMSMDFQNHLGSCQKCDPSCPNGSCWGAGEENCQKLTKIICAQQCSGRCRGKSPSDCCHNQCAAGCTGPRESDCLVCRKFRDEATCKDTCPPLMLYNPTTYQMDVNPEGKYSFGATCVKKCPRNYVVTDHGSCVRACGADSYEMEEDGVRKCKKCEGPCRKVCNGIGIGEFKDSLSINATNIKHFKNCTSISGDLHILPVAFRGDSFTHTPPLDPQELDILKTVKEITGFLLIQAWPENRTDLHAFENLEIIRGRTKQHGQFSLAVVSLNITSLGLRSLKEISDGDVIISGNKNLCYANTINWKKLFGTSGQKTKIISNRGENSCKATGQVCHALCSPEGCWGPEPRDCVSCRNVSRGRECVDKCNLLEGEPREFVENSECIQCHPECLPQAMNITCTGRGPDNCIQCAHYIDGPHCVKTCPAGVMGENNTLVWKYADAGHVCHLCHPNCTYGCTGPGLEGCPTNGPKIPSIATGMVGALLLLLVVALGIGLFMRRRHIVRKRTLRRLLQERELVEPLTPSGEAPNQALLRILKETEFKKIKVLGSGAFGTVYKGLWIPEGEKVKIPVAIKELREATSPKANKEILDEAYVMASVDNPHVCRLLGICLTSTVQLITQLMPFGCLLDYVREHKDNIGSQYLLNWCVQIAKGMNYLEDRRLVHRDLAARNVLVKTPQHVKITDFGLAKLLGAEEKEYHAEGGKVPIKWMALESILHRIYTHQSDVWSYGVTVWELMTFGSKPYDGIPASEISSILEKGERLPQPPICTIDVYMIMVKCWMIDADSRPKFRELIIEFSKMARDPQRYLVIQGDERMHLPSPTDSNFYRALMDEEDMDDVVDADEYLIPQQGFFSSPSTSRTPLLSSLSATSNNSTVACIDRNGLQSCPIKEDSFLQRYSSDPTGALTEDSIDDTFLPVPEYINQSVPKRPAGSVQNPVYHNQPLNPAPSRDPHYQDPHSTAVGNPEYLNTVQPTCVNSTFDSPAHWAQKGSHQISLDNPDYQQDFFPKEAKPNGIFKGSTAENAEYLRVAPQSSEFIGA
Protocol: as §2, §3, §4, §5, §6

[14] = biological target: EGFR (d746-750 T790M C797S) (Homo sapiens (Human), UniProt P00533, C797S/DEL746-750/T790M); assay: as above; conditions: 5 μM ATP; read-out: Del_TM_CS (5 μM ATP)
Chain of EGFR (d746-750 T790M C797S) (P00533 other isoform, or with tags, fused parts or gaps T790M/C797S/del 1-694/del 746-750 limits assumed): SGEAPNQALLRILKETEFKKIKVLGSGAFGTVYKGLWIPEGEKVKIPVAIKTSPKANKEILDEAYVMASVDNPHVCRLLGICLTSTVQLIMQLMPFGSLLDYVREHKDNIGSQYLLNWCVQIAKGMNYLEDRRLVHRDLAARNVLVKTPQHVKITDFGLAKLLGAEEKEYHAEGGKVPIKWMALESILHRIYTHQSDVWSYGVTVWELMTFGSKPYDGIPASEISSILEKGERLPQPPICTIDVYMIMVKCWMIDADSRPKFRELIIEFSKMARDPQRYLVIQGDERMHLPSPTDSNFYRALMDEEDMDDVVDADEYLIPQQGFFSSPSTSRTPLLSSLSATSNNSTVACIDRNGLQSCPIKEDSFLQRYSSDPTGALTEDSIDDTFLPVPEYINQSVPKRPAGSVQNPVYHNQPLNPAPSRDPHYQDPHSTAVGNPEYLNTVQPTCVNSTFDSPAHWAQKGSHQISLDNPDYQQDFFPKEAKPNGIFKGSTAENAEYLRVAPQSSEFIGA
Protocol: as §2, §3
Test compounds dissolved in DMSO are dispensed onto assay plates (Proxiplate 384 PLUS, white, PerkinElmer; 6008289) using an Access Labcyte Workstation with the Labcyte Echo 55x. […]
5 μL of EGFR enzyme form in assay buffer (50 mM HEPES pH 7.3, 10 mM MgCl2, 1 mM EGTA, 0.01% Tween 20, 2 mM DTT) are dispensed into columns 1-23, than 5 μL of ATP and ULight-poly-GT substrate (PerkinElmer; TRF0100-M) mix in assay buffer is added to all wells (final assay concentration of the ULight-poly-GT substrate 200 nM). […] After additional 60 minutes incubation at room temperature the signal is measured in a PerkinElmer Envision HTS Multilabel Reader using the TR-FRET LANCE Ultra specs of PerkinElmer (used wavelengths: excitation 320 nm, emission 1 665 nm, emission 2 615 nm). […] Negative and positive control values are used for normalization and IC50 values are calculated and analysed using a 4 parametric logistic model. […]

[15] = tested on: EGFR M+ NSCLC patients; conditions: EGFR M+ NSCLC patients treated in 1st line; cited from earlier work
[16] = tested on: EGFR M+ T790M-positive patients; conditions: 2nd line, previously treated with earlier generation EGFR TKI; cited from earlier work
[17] = 5 μM ATP, read-out: LR_TM_CS (5 μM ATP)
[18] = 100 μM ATP, read-out: LR_TM_CS (100 μM ATP)
[19] = 5 μM ATP, read-out: wt (5 μM ATP)
[20] = 100 μM ATP, read-out: wt (100 μM ATP)

Structure (SMILES): Cc1cc2cc(n1)-c1cnn(C)c1OCCC[C@@H](C)CN1/C(=N/C2=O)Nc2ccc(CN3CCN(C)CC3)cc21 [Compound I-021]
pIC50 [1]: 8.40
pIC50 ([2]; BaF3, viability, 72 h): 9.00
pIC50 [3]: 5.96
pIC50 [4]: 6.72
pIC50 [5]: 8.15
pIC50 [6]: 9.05
pIC50 [7]: 9.30
pIC50 [8]: 9.70
pIC50 [9]: 9.52
pIC50 [10]: 9.40

pIC50 [11]: 8.92
pIC50 [12, 17]: 9.52
pIC50 [12, 18]: 8.52
pIC50 [13, 19]: 7.89
pIC50 [13, 20]: < 4.00
pIC50 [14]: 9.70
Structure (SMILES): Cn1ncc2c1OCCCCCN1/C(=N/C(=O)c3cc(F)nc-2c3)Nc2ccccc21 [Compound I-037]

pIC50 [11]: 8.39
pIC50 [12, 17]: 8.74
pIC50 [12, 18]: 7.80
pIC50 [13, 19]: 7.74
pIC50 [13, 20]: < 4.00
pIC50 [14]: 8.89
Structure (SMILES): C[C@@H]1CCCOc2ccccc2-c2cc(ccn2)C(=O)N=C2Nc3ccccc3N2C1 [Compound I-046]

pIC50 [3]: 5.46
pIC50 [4]: 5.55
pIC50 [8]: 6.11
pIC50 [10]: 5.66
Structure (SMILES): CC(=O)N1CCCCC(n2/c(=N/C(=O)c3ccnc(C)c3)[nH]c3cccc(Cl)c32)C1 (centres unmarked) [Exp. WO 2014/121942, reference compound]

pIC50 [1]: 8.16
pIC50 ([2]; BaF3, viability, 72 h): 11.00
pIC50 [4]: 9.19
pIC50 [5]: 10.52
pIC50 [7]: 8.80
Structure (SMILES): COc1cc2ncnc(Nc3ccc(F)c(Cl)c3)c2cc1NC(=O)/C=C/CN1CCCCC1 [dacomitinib]

Structure (SMILES): C#Cc1cccc(Nc2ncnc3cc(OCCOC)c(OCCOC)cc23)c1 [erlotinib]
objective response rate [15]: 60-85%

pIC50 ([2]; BaF3, viability, 72 h): 8.96
pIC50 [3]: < 5.30
pIC50 [5]: 8.29
Structure (SMILES): Cc1cc(C(=O)Nc2nc3cccc(Cl)c3n2[C@@H]2CCCCN(C(=O)/C=C/CN(C)C)C2)ccn1 [nazartinib]

Structure (SMILES): C=CC(=O)Nc1cc(Nc2nccc(-c3cn(C)c4ccccc34)n2)c(OC)cc1N(C)CCN(C)C [osimertinib]
pIC50 ([2]; BaF3, 72 h): 9.30
patients that respond to treatment [16]: Approximately 70%
objective response rate [15]: 60-85%
